Where a name gives a salt, the structure may show the parent alone.
Target: T1, Tubulin (Sus scrofa, UniProt P02550+P02554)
T1 construct: Tubulin is purified from pig brains according to the published methods; from tissue; host or cells: pig brain
Test: Assessment of the inhibition of tubulin polymerization (turbidimetry)
Assay type: biochemical, pig
Details: tubulin 10 μM, turbidity at 350 nm, 37° C.
Description: Tubulin is purified from pig brains according to the published methods (Shelanski et al., 1973, Proc. Natl, Acad. Sci. USA, 70, 765-768. Weingarten et al., 1975, Proc. Natl, Acad. Sci. USA, 72, 1858-1862). Briefly, the brains are ground and centrifuged in an extraction buffer. The tubulin, contained in the extract supernatant, is subjected to two successive cycles of polymerization at 37° C. and depolymerization at 4° C., before being separated from the MAPs (Microtubule Associated Proteins) by chromatography on a phosphocellulose P11 column (Whatman). The tubulin thus isolated is more than 95% pure. It is stored in a buffer known as RB/2 30% glycerol, the composition of which is MES-NaOH [2-(N-morpholino)ethanesulfonic acid] 50 mM, pH 6.8; MgCl2 0.25 mM; EGTA 0.5 mM; 30% glycerol (v/v), GTP (guanosine 5′-triphosphate) 0.2 mM.
The polymerization of the tubulin into microtubules is monitored by turbidimetry as follows; the tubulin is adjusted to a concentration of 10 μM (1 mg/ml) in the RB/2 30% glycerol buffer, to which is added 1 mM GTP and 6 mM MgCl2. The polymerization is initiated by increasing the temperature from 6° C. to 37° C. in a cuvette with a 1 cm optical pathlength, placed in a Uvikon 931 spectrophotometer (Kontron) equipped with a thermostatically-regulated cuvette holder. The increase in the turbidity of the solution is monitored at 350 nm.
The products are dissolved at 10 mM in DMSO and added at variable concentrations (0.5 to 10 μM) to the tubulin solution before polymerization. The IC50 value is defined as the concentration of product which inhibits 50% of the rate of polymerization. A product whose IC50 value is less than or equal to 3 μM is considered as very active.

T1 sequence (P02550 whole entry): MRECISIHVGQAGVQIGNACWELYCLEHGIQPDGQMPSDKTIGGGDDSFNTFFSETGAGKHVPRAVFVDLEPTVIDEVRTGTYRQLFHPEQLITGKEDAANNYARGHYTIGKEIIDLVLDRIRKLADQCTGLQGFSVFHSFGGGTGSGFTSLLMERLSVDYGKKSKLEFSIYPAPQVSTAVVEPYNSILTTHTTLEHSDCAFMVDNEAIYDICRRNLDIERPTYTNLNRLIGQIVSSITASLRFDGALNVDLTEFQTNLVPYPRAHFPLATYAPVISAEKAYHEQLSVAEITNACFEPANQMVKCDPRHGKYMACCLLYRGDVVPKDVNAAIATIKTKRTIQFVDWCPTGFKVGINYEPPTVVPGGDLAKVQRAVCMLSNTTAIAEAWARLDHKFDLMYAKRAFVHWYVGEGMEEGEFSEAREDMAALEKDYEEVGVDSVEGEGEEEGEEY
T1 sequence (P02554 whole entry): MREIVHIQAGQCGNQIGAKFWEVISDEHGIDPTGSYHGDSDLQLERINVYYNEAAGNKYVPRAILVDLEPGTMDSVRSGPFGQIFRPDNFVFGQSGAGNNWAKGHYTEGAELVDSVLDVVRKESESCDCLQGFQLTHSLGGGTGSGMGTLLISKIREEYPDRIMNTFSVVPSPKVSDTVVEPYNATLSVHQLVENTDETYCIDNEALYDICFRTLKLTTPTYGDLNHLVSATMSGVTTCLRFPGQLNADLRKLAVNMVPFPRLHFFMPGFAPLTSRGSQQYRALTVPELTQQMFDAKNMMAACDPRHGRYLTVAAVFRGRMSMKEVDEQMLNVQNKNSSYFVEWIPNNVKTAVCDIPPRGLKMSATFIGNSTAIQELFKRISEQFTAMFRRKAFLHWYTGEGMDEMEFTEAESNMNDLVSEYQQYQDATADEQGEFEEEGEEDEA

Row | SMILES | IC50
1 | COc1cc(C(=O)/C(C)=C/c2ccc3c(ccn3C)c2)cc(OC)c1OC [Example 5, E-2-Methyl-3-(1-methyl-1-H-indol-5-yl)-1-(3,4,5-trimethoxyphenyl)propenone] | 0.7 µM
2 | COc1ccc(/C=C(\C)C(=O)c2cc(OC)c(OC)c(OC)c2)cc1NC(=O)[C@@H](N)CO [Example 13, (S)-2-Amino-3-hydroxypropanoic acid {2-methoxy-5-[2-methyl-3-oxo-3-(3,4,5-trimethoxyphenyl)propenyl]phenyl}amide hydrochloride] | 10 µM
